In patent US9533017B2, “Saccharomyces cerevisiae yeast for preventing and/or treating vaginal mycoses” (LESAFFRE ET COMPAGNIE, priority 2012, dated 2017):
“Also recorded” adds a separate entry of the source.

What was measured:
Candida albicans [1] = assay: Antigen with mannoside structure of C. albicans in combined vaginal washes (ICT strips); format: in vivo, rat; conditions: combined washes from 5 rats; fluconazole vs untreated infected rats
Text: Detection of an antigen of C. albicans is useful for diagnosing vaginal candidosis. The antigen comprises a highly immunogenic mannoside structure present in the cell wall of C. albicans. The antigen with mannoside structure is the main antigen present in vaginal infection, it therefore constitutes a useful biomarker for diagnosing […] candidosis.
Another possibility for detecting the presence of the antigen with mannoside structure consists of using ICT strips (Candi Vagi, SR2B). “ICT” is based on capture of the antigen contained in the vaginal secretions using a mouse immunoglobulin IgM directed against the antigen with mannoside structure. The monoclonal antibody recognizes the epitopes of the antigen with mannoside structure for a wide range of Candida species. The monoclonal antibody is conjugated to particles or in a mobile phase and is also applied on a nitrocellulose strip as capture antibody. The ICT stick is put in the suspension of vaginal sample and the samples move by capillary action through the block containing the “MAb-gold” conjugate (Mab for monoclonal antibody). The analysis is performed as described in the publication Marot-Leblond et al., Journal of Clinical Microbiology, 2009.
The antigen with mannoside structure is quantified using non-commercial strips in combined washes from 5 rats.

Candida albicans [2] = assay: Rat model of vaginal candidosis: viable C. albicans CFUs in vaginal washes; format: in vivo; parameters: AUC values (D 2-13): unit not given beside the values; conditions: for number of C. albicans CFUs determined from the washes: fluconazole 50 μg intravaginal 1 h
Description: (§1) Ovariectomized female rats (Sprague-Dawley) aged from 3 to 5 weeks are purchased from Janvier Laboratoires, France. They are maintained under pseudo-estrus by a subcutaneous injection of estradiol benzoate (Sigma, estradiol benzoate resuspended in sesame oil; 0.5 mg/animal) every other day (i.e. three times per week) up to the end of the experiment.
(§2) A week after the first injection of estradiol inducing pseudo-estrus, the female rats are infected with C. albicans. Infection with C. albicans corresponds to a single intravaginal administration of the C. albicans strain at a concentration of 10^7 CFU.
(§3) Fluconazole is administered by the intravaginal route at a dose of 50 μg per rat, respectively 1 h, 24 h and 48 h after infection with C. albicans. […]
The viable colonies of Candida albicans are counted after two days of culture at 30° C. on a selective medium (Chrom-Agar plates, BD). […]
The number of C. albicans (in CFU) is determined from cervico-uterine smears and washes as described above.

Candida albicans [3] = assay: Rat model of vaginal candidosis: viable C. albicans in the vaginal mucosa (cervico-uterine smears on Chrom-Agar plates); format: in vivo; parameters: AUC values (D2 to D13): unit not given beside the values; conditions: fluconazole 50 μg 1 h, 24 h, 48 h after infection
Candida albicans [4] = assay: Cytologic analysis of vaginal washes (MGG staining), inflammation; format: in vivo, rat
Description: The smears are prepared from a cervical sample and from washes.
Preparations of cells in a thin layer on slides are prepared from combined washes in each group of rats (washes from 5 rats) using a cytocentrifuge (Cytospin®). The slides are fixed using an aerosol cytologic fixative (Cytoral®).
Conventional May Grunwaid Giemsa staining is carried out for evaluating the level of inflammation in the groups of rats that received C. albicans alone or combined with the treatment with the Sc I-3856 yeast.
Slides are prepared from the combined vaginal washes and MGG staining is carried out in order to evaluate the appearance of the vaginal epithelial cells, the presence of bacteria and yeasts and the presence of proinflammatory cells.
For cytologic investigation of the vaginal washes, slides are prepared from the combined vaginal washes and MGG staining is carried out.
The appearance of the vaginal epithelial cells, the presence of bacteria and yeasts and the presence of proinflammatory cells are evaluated by observation (results not shown).

Candida albicans [5] = assay: Rat model of vaginal candidosis: viable C. albicans in the vaginal mucosa (cervico-uterine smears on Chrom-Agar plates); format: in vivo; conditions: for mean growth of the colonies of C. albicans on Chrom-Agar plates (smears): fluconazole 50 μg intravaginal 1 h, 24 h, 48 h after infection
Description: as §1, §2, §3
The number of colonies of C. albicans adhering to the vaginal mucosa is evaluated every two days after infection with Candida albicans and up to the end of the experiment (3 weeks later) by taking a cervico-uterine smear (with a calibrated loop) and by spreading on Chrom-Agar plates (a growth medium specific and selective for Candida), 5 vaginal samples being combined.
The viable colonies of Candida albicans are counted after two days of culture at 30° C. on a selective medium (Chrom-Agar plates, BD).
Another way of expressing the results is to calculate the area under the curve (AUC) between day 2 and day 12, which represents a quantitative marker of the presence of viable C. albicans in the vaginal mucosa of rats receiving or not receiving fluconazole.

## OC(Cn1cncn1)(Cn1cncn1)c1ccc(F)cc1F [fluconazole]
Candida albicans [1]
  quantity of antigens with mannoside structure: less in the rats treated with fluconazole than in the untreated rats
Candida albicans [2]; between days 2 and 12, fluconazole
  decrease in elimination of viable C. albicans (AUC of washes) relative to the untreated rats: 20%
Candida albicans [2]; day 2, 24 h, 48 h after infection
  number of C. albicans CFUs determined from the washes: 9 CFU
Candida albicans [2]; day 5, 24 h, 48 h after infection
  number of C. albicans CFUs determined from the washes: 53 CFU
Candida albicans [2]; day 7, 24 h, 48 h after infection
  number of C. albicans CFUs determined from the washes: 17 CFU
Candida albicans [2]; day 10, 24 h, 48 h after infection
  number of C. albicans CFUs determined from the washes: 3 CFU
Candida albicans [2]; day 13, 24 h, 48 h after infection
  number of C. albicans CFUs determined from the washes: 1 CFU
Candida albicans [2]; day 15, 24 h, 48 h after infection
  number of C. albicans CFUs determined from the washes: 6 CFU
Candida albicans [2]; day 17, 24 h, 48 h after infection
  number of C. albicans CFUs determined from the washes: 7 CFU
Candida albicans [2]; day 20, 24 h, 48 h after infection
  number of C. albicans CFUs determined from the washes: 3 CFU
Candida albicans [2]; day 23, 24 h, 48 h after infection
  number of C. albicans CFUs determined from the washes: 1 CFU
Candida albicans [2]; day 25, 24 h, 48 h after infection
  number of C. albicans CFUs determined from the washes: 4 CFU
Candida albicans [2]; days 2 to 5, fluconazole
  percentage of CFUs of C. albicans released/detected in washes in the first phase (D2-D5): 73%
Candida albicans [2]; first week after infection, fluconazole
  increase of the elimination of viable C. albicans: 45%
Candida albicans [2]; fluconazole, first 8 days after infection
  peak intensity of release of Candida in washes: 5 days
Candida albicans [2]; washes, fluconazole 50 μg 1 h, 24 h, 48 h after infection
  AUC values (D 2-13): 199
Candida albicans [3]
  AUC values (D2 to D13): 236.875
  Difference (AUC D2 to D13 vs C. albicans untreated): 135.555
Candida albicans [4]; day 2, fluconazole
  cytology of vaginal washes: inflammatory cells: prevents inflammatory infiltration
Candida albicans [4]; day 12, fluconazole
  cytology of vaginal washes: C. albicans and inflammatory cells: not one C. albicans cell is observed and only a few macrophages and neutrophils are present; also recorded: no C. albicans is observed, but some macrophages and neutrophils are observed
Candida albicans [4]; day D2 (by context), yeast as prophylactic or therapeutic treatment
  presence of C. albicans on slides of vaginal washes: presence of C. albicans is observed
Candida albicans [5]; day 2
  mean growth of the colonies of C. albicans on Chrom-Agar plates (smears): 5.25 CFU
Candida albicans [5]; day 5
  mean growth of the colonies of C. albicans on Chrom-Agar plates (smears): 25 CFU
Candida albicans [5]; day 7
  mean growth of the colonies of C. albicans on Chrom-Agar plates (smears): 42 CFU
Candida albicans [5]; day 10
  mean growth of the colonies of C. albicans on Chrom-Agar plates (smears): 17 CFU
Candida albicans [5]; day 12, fluconazole
  infection of the vaginal mucosa with C. albicans on day 12: absence of infection with C. albicans; also recorded: prevent infection with Candida albicans completely
Candida albicans [5]; day 13
  mean growth of the colonies of C. albicans on Chrom-Agar plates (smears): 7 CFU
Candida albicans [5]; day 15
  mean growth of the colonies of C. albicans on Chrom-Agar plates (smears): 34.45 CFU
Candida albicans [5]; day 17
  mean growth of the colonies of C. albicans on Chrom-Agar plates (smears): 24.4 CFU
Candida albicans [5]; day 20
  mean growth of the colonies of C. albicans on Chrom-Agar plates (smears): 8.8 CFU
Candida albicans [5]; day 23
  mean growth of the colonies of C. albicans on Chrom-Agar plates (smears): 11.8 CFU
Candida albicans [5]; day 25
  mean growth of the colonies of C. albicans on Chrom-Agar plates (smears): 11.6 CFU
Candida albicans [5]; first 12 days after infection, fluconazole treatment
  decrease in the number of viable C. albicans in the vaginal mucosa (AUC) relative to untreated rats: 36%
